These results are taken from article PMC12040169 (PLOS Biology, 2025).

The nature of the data set: in vitro. The following applies: human, hela cells, % viability.

As to `Cc1[nH]c2ccccc2c1/C=C1/C(=N)N2C(SCc3ccccc3)=NSC2=NC1=O` [CBK265291], the viability at 28.5 h, 10 µM worked out at 90%.
For the molecule `Nc1ccc(CCNC(=O)c2cnc(-c3ccc(Cl)cc3)c(-c3ccco3)c2)cc1` [CBK036686], the viability at 28.5 h, 10 µM worked out at 99.7%.
As to `O=C(Nc1ccc(OCc2ccccc2F)cc1)c1ccc(-n2cnnc2)cc1` [CBK285816], the viability at 28.5 h, 10 µM was 81.4%.
For `O=C(O)Cc1nc(-c2ccccc2)c(-c2ccccc2)s1` [CBK159470], the viability at 28.5 h, 10 µM amounted to 99.4%.
Turning to `OC[C@H]1CCCN1c1nc(Br)cn2ccnc12` [CBK085496], the viability at 28.5 h, 10 µM stood at 101%.
As for `Cn1nnnc1SCCNC(=O)Nc1cccc(CN2CCCCC2)c1` [CBK306872], the viability at 28.5 h, 10 µM came out at 97.3%.
As for `COC(=O)Cn1c(C(C)(C)C)cn2c3c(=O)n(C)c(=O)n(C)c3nc12` [CBK307555], the figure is 84.3%; as for `COC(=O)c1ccc2c(=O)n(CCc3ccc(S(N)(=O)=O)cc3)c(=S)[nH]c2c1` [CBK268238], 91.2%; as for `NC(=O)C1CCN(C(=O)CSc2nc3ccccc3o2)CC1` [CBK265930], 97.8%.
Take `CSc1nsc(SCC(=O)Nc2ccc3c(c2)OCO3)n1` [CBK270044]: the viability at 28.5 h, 10 µM is 88.6%.
For `CCN1CC2(CCN(CC(N)=O)CC2)c2ccccc21` [CBK131485] the value was 107%; for `CN(C)CCCC(O)(c1ccccc1)c1ccccc1` [CBK012599], 109%; for `NC(=O)C1(N2CCCCC2)CCN(C2CC(=O)N(Cc3ccc(N4CCCC4=O)cc3)C2=O)CC1` (stereo not drawn) [CBK266598], 102%.
`C=CCn1c(SCC(=O)Nc2sc3c(c2C#N)CCC3)nc2scc(-c3ccccc3)c2c1=O` [CBK264477]: the viability at 28.5 h, 10 µM worked out at 104%.
Consider `COc1cc(-c2cnc3cccnc3c2N)cc(OC)c1OC` [CBK081190], for which the viability at 28.5 h, 10 µM amounted to 93.1%.
With `CSCCC(NC(=O)c1c(C)oc2c1CCCC2)C(=O)O` (stereo not drawn) [CBK264029], the viability at 28.5 h, 10 µM came out at 82%.
As to `O=C(O)C1C2CCC(CC2)C1C(=O)N1CCN(Cc2ccccc2Cl)CC1` (stereo not drawn) [CBK270336], the viability at 28.5 h, 10 µM worked out at 100%.
On to `O=C1CCC(C(=O)N2CCCC(c3cc4ccccc4cn3)C2)CC1` (stereo not drawn) [CBK284989], for which the viability at 28.5 h, 10 µM amounted to 102%.
For `COc1ccc(-c2nc(NC(=O)CSc3n[nH]c(N)n3)ns2)cc1` [CBK267236], the viability at 28.5 h, 10 µM was 81.8%.
With `O=C(O)c1cccc(Nc2nc3ccccc3nc2NS(=O)(=O)c2ccc(Br)cc2)c1` [CBK296113], the viability at 28.5 h, 10 µM turned out to be 111%.
On to `COc1ccc(C(=O)N2CCC3(CC2)NC(=O)c2cc(C)ccc2O3)cc1C` [CBK166277], for which the viability at 28.5 h, 10 µM was 89%.
In the case of `CN1CCCC(Cc2cc(-c3ccccc3)no2)(C(=O)N(C)C)C1` (stereo not drawn) [CBK281674], the viability at 28.5 h, 10 µM is 102%.
As to `COc1ccc(N(C(C)C(=O)NN=C2CCN(C)CC2)S(C)(=O)=O)cc1` (stereo not drawn) [CBK262390], the viability at 28.5 h, 10 µM was 94.2%.
As to `Cc1cc(C(=O)N2CCCc3ccccc32)n[nH]1` [CBK200346], the viability at 28.5 h, 10 µM is 92%.
In the case of `Cc1noc(C)c1S(=O)(=O)Nc1ccnn1C` [CBK062073], the viability at 28.5 h, 10 µM worked out at 90.1%.
As to `O=C(Nc1ncn(CC(=O)N2CCCCCC2)n1)c1ccsc1` [CBK304974], the viability at 28.5 h, 10 µM was determined as 99.4%.
As for `O=C(CCNCCc1c[nH]c(=O)[nH]c1=O)Nc1cccc(Cl)c1` [CBK306889], the figure is 86.3%; as for `COc1ccc(-c2ccc(CN(Cc3ccc4c(c3)OCO4)CC(C)O)cc2)cc1` (stereo not drawn) [CBK286470], 95%.
For `CCC(CC)C(=O)N1CCN(Cc2ccccc2)CCC1=O` [CBK284830] the value was 87.9%; for `COc1ccccc1Cn1nc2nnc(-c3ccccc3)c(-c3ccccc3)n2c1=O` [CBK286185], 88.6%; for `O=C(NCCc1ccccc1)c1ncoc1-c1cccs1` [CBK283662], 91.8%.
With `Cc1ccc(S(=O)(=O)NC(C(=O)O)c2ccccc2)cc1` (stereo not drawn) [CBK286985], the viability at 28.5 h, 10 µM is 106%.
On to `CCC(=O)N1CCC[C@@H]1Cn1nc(-c2cccs2)ccc1=O` [CBK282304], for which the viability at 28.5 h, 10 µM turned out to be 84.8%.
`CN(Cc1cc(Br)cs1)C(=O)CCc1c[nH]c2ccccc12` [CBK298268]: the viability at 28.5 h, 10 µM came out at 108%.
As for `CC(NC(=O)c1cc2ccccc2c(=O)[nH]1)c1ccc(-c2ccccc2)cc1` (stereo not drawn) [CBK297936], the viability at 28.5 h, 10 µM is 86.4%.
For `O=C(N/N=C/c1c[nH]c2ccc(Br)cc12)c1ccncc1` [CBK262798] the value was 116%.
On to `O=S(=O)(NCCOCc1ccccc1)c1ccc2c(c1)Cc1ccccc1-2` [CBK266032], for which the viability at 28.5 h, 10 µM was found to be 101%.
In the case of `Cc1ccc(Cl)cc1-n1cc(-c2ccc(F)cc2)nn1` [CBK113128], the viability at 28.5 h, 10 µM is 98.9%.
As for `Cc1c(C)n(Cc2ccco2)c2ncnc(N3CCC(C(=O)O)CC3)c12` [CBK307599], the figure is 99.1%.
`CN(C)c1ccc(C(=O)N2CCN3C(=O)[C@H](Cc4ccc(F)cc4)NC(=O)[C@H]3C2)cc1` [CBK289601]: the viability at 28.5 h, 10 µM came out at 109%.
Regarding `CCOC(=O)c1cnn2c(O)cc(CN3CCc4sccc4C3)nc12` [CBK305680], the viability at 28.5 h, 10 µM was 106%.
Turning to `O=C(CCN1CCOCC1)Nc1cc(Cl)cc(Cl)c1` [CBK057021], the viability at 28.5 h, 10 µM was 119%.
For `c1ccc(OCCNc2nccnc2N2CCNCC2)cc1` [CBK013527], the viability at 28.5 h, 10 µM stood at 93.3%.
For `Cc1cc(Cl)ccc1NC(=O)CCC(=O)N/N=C/c1cccnc1` [CBK261945] the value was 100%; for `Cc1cccc(C(C)C)c1NC(=O)C1Cc2ccccc2CN1S(=O)(=O)c1ccc(F)cc1` (stereo not drawn) [CBK267992], 101%; for `COc1ccc(NS(=O)(=O)c2ccc(Cl)cc2Cl)c(C(=O)NCc2ccccc2)c1` [CBK113943], 98.4%.
In the case of `O=C(COc1ccc(-c2ccccc2)cc1)N1CCN(S(=O)(=O)c2ccc([N+](=O)[O-])cc2)CC1` [CBK264297], the viability at 28.5 h, 10 µM came out at 106%.
As for `CCCc1cc(C(N)=O)c(NC(=O)c2cc(-c3ccc(C)o3)nc3ccccc23)s1` [CBK267766C], the viability at 28.5 h, 10 µM amounted to 90.9%.
In the case of `CCn1cc(-c2cncn2CCN(C)C2CCCC2)cn1` [CBK281551], the viability at 28.5 h, 10 µM came to 90.7%.
Take `CCC(Sc1nc2ccc(F)cc2[nH]1)C(=O)O` (stereo not drawn) [CBK287174]: the viability at 28.5 h, 10 µM amounted to 106%.
For `O=C(CCc1ccccc1)Nc1cccc2nsnc12` [CBK265680] the value was 85.3%; for `O=C(NC1Cc2ccccc2C1)c1ccno1` [CBK200358], 99.4%; for `CCOC(=O)c1cn(CC)c2cc(N3CCN(C)CC3)c(F)cc2c1=O` [CBK307141], 92.9%.
As for `COCCNC(=O)CSc1cc(Cl)nc(Cl)c1` [CBK020796], the viability at 28.5 h, 10 µM was determined as 88.3%.
Consider `COc1ccc(C)cc1S(=O)(=O)Nc1cc(OCCN2CCOCC2)c2occc2c1` [CBK067419C], for which the viability at 28.5 h, 10 µM amounted to 87.7%.
For `CC(C)(CSc1nnc(Nc2ccccc2)s1)NS(=O)(=O)c1ccc(Cl)cc1` [CBK266388] the value was 108%.
Regarding `Cc1cc(CNC(=O)C2(c3ccccc3)CCCC2)no1` [CBK149518], the viability at 28.5 h, 10 µM amounted to 103%.
